Assay results published in US20230310445A1, “LOX ENZYME INHIBITING METHODS AND COMPOSITIONS” (ANOVIA BIOSCIENCES, INC., priority 2020, published 2023).
pIC50: −log10 of the molar value. Read-outs that look alike come from different tables or passages of the source.

Tests used:
[1] = molecular target: T1, Bovine lysyl oxidase (LOX) (Bos taurus, UniProt P33072); assay: LOX inhibition assay (fluorometric, cadaverine/Amplex Red/HRP); assay type: biochemical; settings: IC50 class; bovine tendon LOX, cadaverine substrate; read-out: Activity Range LOX
T1 construct: from tissue; host or cells: adult bovine tendon
T1 sequence (P33072 170-418): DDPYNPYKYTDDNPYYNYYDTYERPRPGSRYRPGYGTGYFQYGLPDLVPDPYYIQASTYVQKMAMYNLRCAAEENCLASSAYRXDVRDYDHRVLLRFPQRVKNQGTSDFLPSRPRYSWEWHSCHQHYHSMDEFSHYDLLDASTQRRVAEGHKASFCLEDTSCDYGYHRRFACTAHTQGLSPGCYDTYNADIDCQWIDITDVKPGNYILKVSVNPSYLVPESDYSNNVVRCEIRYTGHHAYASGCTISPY
In short: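 Bovine tendon-extracted LOX was preincubated 30 min at 37 °C with compound. Cadaverine/Amplex Red/HRP was then added and fluorescence (ex530/em600) monitored for 120 min at 37 °C. Progress-curve slopes, background-subtracted against no-protein wells, were normalised to DMSO controls and fitted with a four-parameter variable-slope dose-response model.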

[2] = Permeability study in Caco-2 cell line; assay type: in vitro ADME; settings: human; for efflux ratio at 2 h, 5 μM: Caco-2, pH 7.4; for Papp A→B at 2 h, 5 μM: Caco-2, apical to basolateral; for Papp A→B at 2 h, 5 μM / Papp B→A at 2 h, 5 μM: pH 7.4; for Papp B→A at 2 h, 5 μM: Caco-2, basolateral to apical
Procedure: Caco-2 cell suspensions were dispensed into the inserts of the 96-well HTS Transwell plate and cultivated for 14-18 days. Transepithelial electrical resistance (TEER) across the monolayer was measured using Millicell Epithelial Volt-Ohm measuring system. The Caco-2 plate was then washed twice with pre-warmed HBSS (pH 7.4) and incubated at 37° C. for 30 minutes. To determine the rate of drug transport in the apical to basolateral direction. 5 μM test compound was added to the Transwell insert and the wells in the receiver plate were filled with HBSS (pH 7.4). To determine the rate of drug transport in the basolateral to apical direction, 5 μM test compound was added to the receiver plate wells and then the Transwell inserts were filled with HBSS (pH 7.4). The plates were incubated at 37° C. for 2 hours. 50 μL samples from donor sides and receiver sides were transferred to wells of a new 96-well plate followed by the addition of 4 volume of cold methanol containing internal standards (IS). Samples were centrifuged and the supernatant was used for LC-MS/MS analysis. After the incubation, residue solutions were removed from the Transwell plates, and Lucifer yellow (100 μM) solution was added to each Transwell insert, followed by filling the receiver wells with HBSS. The plates were incubated at 37° C. for 30 minutes. 80 μL samples were removed from the apical and basolateral wells and the fluorescence of Lucifer yellow was measured in a microplate reader with 485 nm excitation and 530 nm emission.

[3] = Microsome stability study; assay type: in vitro ADME, mouse; settings: for half-life at 2 μM / microsomal CLint at 2 μM / CLint scaled at 2 μM: CD-1, pH 7.4; for half-life at 2 μM / microsomal CLint at 2 μM: male mouse liver microsomes 0.5 mg/mL, NADPH; for CLint scaled at 2 μM: male, read-out: Scaled-up CLint; for CLint scaled at 2 μM / Predicted hepatic CL: mouse liver microsomes
Procedure: Pooled CD-1 mouse liver microsomes at 0.5 mg/mL were pre-incubated in phosphate buffer (100 mM, pH 7.4) containing 1 mM NADPH and 3 mM MgCl2 in a 96-well plate for 5 minutes at 37° C. Ultra-pure water was added instead of NADPH in the negative control group to exclude the misleading factor that resulted from instability of chemical itself. The reaction was initiated by adding test compound at the final concentration of 2 μM and incubated at 37° C. Aliquots were taken from the incubation at 0, 15, 30, 45 and 60 minutes followed by the addition of 4 volume of cold acetonitrile containing internal standards. Samples were centrifuged and supernatant was used for LC-MS/MS analysis.

[4] = Caco-2, pH 7.4, Caco-2, apical to basolateral, read-out: Recovery (%)AP-BL
[5] = Caco-2, pH 7.4, Caco-2, basolateral to apical, read-out: Recovery (%)BL-AP

Q: Which results are given for `CS(=O)(=O)[C@H]1C[C@@H](S(=O)(=O)c2cccc(CN)c2)CN(c2ccccc2)C1` (racemic) [Example 23, cis-(3-((-5-(Methylsulfonyl)-1-phenylpiperidin-3-yl)sulfonyl)phenyl)methanamine]?
A: pIC50 [1]: < 4.52; efflux ratio at 2 h, 5 μM [2]: 61.4; recovery at 2 h, 5 μM [2, 4]: 86.5%; recovery at 2 h, 5 μM [2, 5]: 103%; Papp A→B at 2 h, 5 μM [2]: 0.38 ×10⁻⁶ cm/s; Papp B→A at 2 h, 5 μM [2]: 23.3 ×10⁻⁶ cm/s; half-life at 2 μM [3]: 269 min; microsomal CLint at 2 μM [3]: 5.14 µL/min/mg; CLint scaled at 2 μM [3]: 22.5 mL/min/kg; Predicted hepatic CL [3]: 18.00 mL/min/kg

Q: With `CS(=O)(=O)N1C[C@H](Oc2cccc(CN)c2)C[C@H](c2ccccc2F)C1` (racemic) [Example 70, cis-(3-((5-(2-Fluorophenyl)-1-(methylsulfonyl)piperidin-3-yl)oxy)phenyl)methanamine 2,2,2-trifluoroacetate] as the compound, how does the pIC50 [1] read?
A: The pIC50 was under 4.52.

Q: With `CN(C)C(=O)N1C[C@@H](c2ccccc2)C[C@@H](S(=O)(=O)c2cccc(CN)c2)C1.O=C(O)C(F)(F)F` (racemic) [Example 74, cis-3-((3-(Aminomethyl)phenyl)sulfonyl)-N,N-dimethyl-5-phenylpiperidine-1-carboxamide 2,2,2-trifluoroacetate] as the compound, how does the pIC50 [1] read?
A: Its pIC50 is under 4.52.

Q: What about the efflux ratio at 2 h, 5 μM [2] of the same compound?
A: The efflux ratio at 2 h, 5 μM was 47.1.

Q: And the recovery at 2 h, 5 μM [2, 4]?
A: The recovery at 2 h, 5 μM was 77.4%.

Q: And the recovery at 2 h, 5 μM [2, 5]?
A: Its recovery at 2 h, 5 μM is 90.8%.

Q: What about the Papp A→B at 2 h, 5 μM [2] of the same compound?
A: Its Papp A→B at 2 h, 5 μM is 0.71 ×10⁻⁶ cm/s.

Q: What about the Papp B→A at 2 h, 5 μM [2] of the same compound?
A: The Papp B→A at 2 h, 5 μM was 33.3 ×10⁻⁶ cm/s.

Q: What about the half-life at 2 μM [3] of the same compound?
A: The half-life at 2 μM was 113 min.

Q: And the microsomal CLint at 2 μM [3]?
A: Its microsomal CLint at 2 μM is 12.2 µL/min/mg.

Q: And the CLint scaled at 2 μM [3]?
A: Its CLint scaled at 2 μM is 53.6 mL/min/kg.

Q: What about the “Predicted hepatic CL” value [3] of the same compound?
A: The value was 33.58 mL/min/kg.

Q: With `NCc1ccc(S(=O)(=O)N2C[C@H](C(=O)N3CCS(=O)(=O)CC3)C[C@@H](c3ccccc3)C2)s1.O=C(O)C(F)(F)F` (racemic) [Example 75B, trans-(1-((5-(Aminomethyl)thiophen-2-yl)sulfonyl)-5-phenylpiperidin-3-yl)(1,1-dioxidothiomorpholino)methanone 2,2,2-trifluoroacetate] as the compound, how does the pIC50 [1] read?
A: The pIC50 was at least 6.30.

Q: What about the efflux ratio at 2 h, 5 μM [2] of the same compound?
A: Its efflux ratio at 2 h, 5 μM is 30.1.

Q: And the recovery at 2 h, 5 μM [2, 4]?
A: Its recovery at 2 h, 5 μM is 72.1%.

Q: What about the recovery at 2 h, 5 μM [2, 5] of the same compound?
A: Its recovery at 2 h, 5 μM is 83.5%.

Q: And the Papp A→B at 2 h, 5 μM [2]?
A: The Papp A→B at 2 h, 5 μM was 0.4 ×10⁻⁶ cm/s.

Q: And the Papp B→A at 2 h, 5 μM [2]?
A: Its Papp B→A at 2 h, 5 μM is 12.1 ×10⁻⁶ cm/s.

Q: What about the half-life at 2 μM [3] of the same compound?
A: The half-life at 2 μM was 37.1 min.

Q: And the microsomal CLint at 2 μM [3]?
A: The microsomal CLint at 2 μM was 37.3 µL/min/mg.

Q: What about the CLint scaled at 2 μM [3] of the same compound?
A: The CLint scaled at 2 μM was 163 mL/min/kg.

Q: What about the “Predicted hepatic CL” value [3] of the same compound?
A: Its value is 58.02 mL/min/kg.

Q: With `CS(=O)(=O)[C@@H]1C[C@@H](S(=O)(=O)c2cccc(CN)c2)CN(c2ccccc2)C1` (racemic) [Example 79, trans-(3-((-5-(Methylsulfonyl)-1-phenylpiperidin-3-yl)sulfonyl)phenyl)methanamine] as the compound, how does the pIC50 [1] read?
A: Its pIC50 is under 4.52.

Q: With `NCc1cccc(S(=O)(=O)N2C[C@H](C(=O)N3CCS(=O)(=O)CC3)C[C@@H](c3ccccc3)C2)c1` (racemic) [Example 85, trans-(1-((3-(Aminomethyl)phenyl)sulfonyl)-5-phenylpiperidin-3-yl)(1,1-dioxidothiomorpholino)methanone 2,2,2-trifluoroacetate] as the compound, how does the pIC50 [1] read?
A: Its pIC50 is under 4.52.

Q: With `CS(=O)(=O)[C@H]1C[C@@H](S(=O)(=O)c2cccc(CN)c2)CN(c2ccccc2F)C1` (racemic) [Example 92, cis-(3-((-1-(2-Fluorophenyl)-5-(methylsulfonyl)piperidin-3-yl)sulfonyl)phenyl)methanamine 2,2,2-trifluoroacetate] as the compound, how does the pIC50 [1] read?
A: The pIC50 was under 4.52.

Q: With `NCc1cccc(S(=O)(=O)N2C[C@H](C(=O)N3CCS(=O)(=O)CC3)C[C@@H](c3ccccc3)C2)n1` (racemic) [Example 115T, trans-(1-((6-(Aminomethyl)pyridin-2-yl)sulfonyl)-5-phenylpiperidin-3-yl)(1,1-dioxidothiomorpholino)methanone 2,2,2-trifluoroacetate] as the compound, how does the pIC50 [1] read?
A: The pIC50 was under 4.52.

Q: With `NCc1ccc(S(=O)(=O)N2C[C@@H](C(=O)N3CCOCC3)C[C@@H](C3CCCCC3)C2)s1.O=C(O)C(F)(F)F` (racemic) [Example 120, cis-(1-((5-(Aminomethyl)thiophen-2-yl)sulfonyl)-5-cyclohexylpiperidin-3-yl)(morpholino)methanone 2,2,2-trifluoroacetate] as the compound, how does the pIC50 [1] read?
A: The pIC50 was at least 6.30.

Q: And the half-life at 2 μM [3]?
A: Its half-life at 2 μM is 37 min.

Q: What about the microsomal CLint at 2 μM [3] of the same compound?
A: Its microsomal CLint at 2 μM is 37.4 µL/min/mg.

Q: And the CLint scaled at 2 μM [3]?
A: The CLint scaled at 2 μM was 164 mL/min/kg.

Q: What about the “Predicted hepatic CL” value [3] of the same compound?
A: Its value is 58.07 mL/min/kg.

Q: With `NCc1ccnc(S(=O)(=O)N2C[C@@H](C(=O)N3CCS(=O)(=O)CC3)C[C@@H](c3ccccc3)C2)c1` (racemic) [Example 134, cis-(1-((4-(Aminomethyl)pyridin-2-yl)sulfonyl)-5-phenylpiperidin-3-yl)(1,1-dioxidothiomorpholino)methanone 2,2,2-trifluoroacetate] as the compound, how does the pIC50 [1] read?
A: The pIC50 was 4.52 to 6.00.

Q: With `NCc1cccc(S(=O)(=O)N2C[C@@H](C(=O)N3CCOCC3)C[C@@H](C3CCCCC3)C2)c1` (racemic) [Example 139, cis-(1-((3-(Aminomethyl)phenyl)sulfonyl)-5-cyclohexylpiperidin-3-yl)(morpholino)methanone] as the compound, how does the pIC50 [1] read?
A: The pIC50 was under 4.52.

Q: With `NCc1cccc(S(=O)(=O)N2C[C@@H](C(=O)N3CCS(=O)(=O)CC3)C[C@@H](C3CCCCC3)C2)c1` (racemic) [Example 140, cis-(1-((3-(Aminomethyl)phenyl)sulfonyl)-5-cyclohexylpiperidin-3-yl)(1,1-dioxidothiomorpholino)methanone] as the compound, how does the pIC50 [1] read?
A: The pIC50 was under 4.52.

Q: With `CN(C)C(=O)[C@H]1C[C@@H](C2CCCCC2)CN(S(=O)(=O)c2cc(CN)ccn2)C1` (racemic) [Example 144, cis-1-((4-(Aminomethyl)pyridin-2-yl)sulfonyl)-5-cyclohexyl-N,N-dimethylpiperidine-3-carboxamide 2,2,2-trifluoroacetate] as the compound, how does the pIC50 [1] read?
A: Its pIC50 is 4.52 to 6.00.

Q: With `NCc1ccnc(S(=O)(=O)N2C[C@@H](C(=O)N3CCOCC3)C[C@@H](C3CCCCC3)C2)c1` (racemic) [Example 145, cis-(1-((4-(Aminomethyl)pyridin-2-yl)sulfonyl)-5-cyclohexylpiperidin-3-yl)(morpholino)methanone 2,2,2-trifluoroacetate] as the compound, how does the pIC50 [1] read?
A: The pIC50 was 4.52 to 6.00.

Q: What does the source list for `NCc1ccnc(S(=O)(=O)N2C[C@@H](C(=O)N3CCS(=O)(=O)CC3)C[C@@H](C3CCCCC3)C2)c1.O=C(O)C(F)(F)F` (racemic) [Example 146, cis-(1-((4-(Aminomethyl)pyridin-2-yl)sulfonyl)-5-cyclohexylpiperidin-3-yl)(1,1-dioxidothiomorpholino)methanone 2,2,2-trifluoroacetate]?
A: pIC50 [1]: 4.52 to 6.00; half-life at 2 μM [3]: 32 min; microsomal CLint at 2 μM [3]: 43.3 µL/min/mg; CLint scaled at 2 μM [3]: 190 mL/min/kg; Predicted hepatic CL [3]: 61.03 mL/min/kg

Q: With `NCc1ccnc(S(=O)(=O)N2C[C@@H](C(=O)N3CCOCC3)C[C@@H](c3ccccc3)C2)c1` (relative stereo) [Example 133, cis-(1-((4-(Aminomethyl)pyridin-2-yl)sulfonyl)-5-phenylpiperidin-3-yl)(morpholino)methanone 2,2,2-trifluoroacetate] as the compound, how does the pIC50 [1] read?
A: Its pIC50 is 4.52 to 6.00.

Q: With `CN(C)C(=O)[C@H]1C[C@@H](C2CCCCC2)CN(S(=O)(=O)c2cccc(CN)c2)C1` (relative stereo) [Example 138, cis-1-((3-(Aminomethyl)phenyl)sulfonyl)-5-cyclohexyl-N,N-dimethylpiperidine-3-carboxamide 2,2,2-trifluoroacetate] as the compound, how does the pIC50 [1] read?
A: The pIC50 was under 4.52.

Q: With `NCc1ccnc(S(=O)(=O)N2C[C@@H](C(=O)N3CCOCC3)C[C@@H](c3ccccc3)C2)c1` [Example 133A, ((3S,5S)-1-((4-(aminomethyl)pyridin-2-yl)sulfonyl)-5-phenylpiperidin-3-yl)(morpholino)methanone 2,2,2-trifluoroacetate] as the compound, how does the pIC50 [1] read?
A: The pIC50 was 4.52 to 6.00.

Q: With `NCc1ccnc(S(=O)(=O)N2C[C@H](C(=O)N3CCOCC3)C[C@H](c3ccccc3)C2)c1` [Example 133B, ((3R,5R)-1-((4-(aminomethyl)pyridin-2-yl)sulfonyl)-5-phenylpiperidin-3-yl)(morpholino)methanone 2,2,2-trifluoroacetate] as the compound, how does the pIC50 [1] read?
A: The pIC50 was 4.52 to 6.00.
